Reference: patent US20250051519A1, “SOLUTION ELECTROSPUN FIBERS, COMPOSITIONS COMPRISING THE SAME AND A PROCESS OF MANUFACTURING THEREOF” (UNIVERSITEIT GENT, priority 2021, published 2025)

Assays:
[1] = Sink in vitro dissolution test of flubendazole samples in 0.1 M HCl; assay type: physicochemical; conditions: after 10 minutes, sample containing 50 mg flubendazole in 900 ml 0.1 M HCl
Experimental: Samples were filtered through a 0.45 μm PTFE filter, diluted and consequently measured via UV-Vis spectroscopy. Experiments were performed in triplicate.

[2] = In vivo bioavailability study, oral capsules, plasma levels by LC-MS; conditions: dog; analyte Flu in plasma; oral capsule with 200 mg Flu, fasted Beagle dogs, n=5
Experimental: Capsules of a 00 size were filled with either 50 wt % Flu-PEtOx nanofibrous material or with pure crystalline Flu. Each capsule contained 200 mg of Flu. These capsules were administered to beagles in 2 different sessions with at least 8 days in between both sessions. The study was approved by the ethical commission for animal testing at Ghent University. Before the dogs were fed the capsules, a fasting time of 12 hours was set. Using an intravenous catheter in the vena cephalica blood samples of 3 ml were collected at different time intervalls of 0.5, 1, 2, 4, 6, 8, 12, 16, 20 and 24 hours after administration. Plasma samples were stored at −20° C. until analyzed using an LC-MS method.
A […] flubendazole nanofibrous amorphous solid dispersion was obtained by the solution electrospinning of PEtOx and Flu in a formic acid solvent system. The process conditions were a tip to collector distance of 15 cm, a flow rate of 0.12 ml/h and a voltage of 27.5 kV. Note that this high flubendazole loading was only reached when a PEtOx wt % was used which is lower compared to the minimal required polymer concentration for solution electrospinning pure PEtOx, as shown in Example 4. […] Concentrations of Flu and its two metabolites, H-Flu and R-Flu, were monitored.

Dissolution rate (10 min) [1]: 0.07 ± 0.03 µg/mL/min
Cmax [2]: 1.2 ± 0.4 ng/mL
Tmax [2]: 1 ± 0.6 h
SMILES: COC(=O)Nc1nc2cc(C(=O)c3ccc(F)cc3)ccc2[nH]1 [Flu, Flubendazole]
